Data as given in article PMC5963640 (Journal of Ocular Pharmacology and Therapeutics, 2018).
Where two headings read alike, the source gives them in different places.

What was measured:
[1] = system: normotensive Formosan Rock monkeys; assay: Ocular hypotensive activity (IOP) in monkeys; settings: for IOP reduction: Day 3; for maximal IOP reduction: once daily, Day 3, at 4 or 8 h after dosing
[2] = system: transformed human TM (HTM) cells (TM-1); assay: Disruption of focal adhesions, high-content screening; assay type: cell-based; settings: read-out: HTM IC50 (disruption of focal adhesions)
[3] = molecular target: T1, myotonic dystrophy kinase-related CDC42-binding kinase alpha (MRCKA) (Homo sapiens, UniProt Q5VT25); assay: Kinase-Glo luminescent protein kinase assay, MRCKA; assay type: biochemical; settings: average of ≥3 replicate experiments
T1 construct: purchased Upstate
T1 sequence (Q5VT25 whole entry): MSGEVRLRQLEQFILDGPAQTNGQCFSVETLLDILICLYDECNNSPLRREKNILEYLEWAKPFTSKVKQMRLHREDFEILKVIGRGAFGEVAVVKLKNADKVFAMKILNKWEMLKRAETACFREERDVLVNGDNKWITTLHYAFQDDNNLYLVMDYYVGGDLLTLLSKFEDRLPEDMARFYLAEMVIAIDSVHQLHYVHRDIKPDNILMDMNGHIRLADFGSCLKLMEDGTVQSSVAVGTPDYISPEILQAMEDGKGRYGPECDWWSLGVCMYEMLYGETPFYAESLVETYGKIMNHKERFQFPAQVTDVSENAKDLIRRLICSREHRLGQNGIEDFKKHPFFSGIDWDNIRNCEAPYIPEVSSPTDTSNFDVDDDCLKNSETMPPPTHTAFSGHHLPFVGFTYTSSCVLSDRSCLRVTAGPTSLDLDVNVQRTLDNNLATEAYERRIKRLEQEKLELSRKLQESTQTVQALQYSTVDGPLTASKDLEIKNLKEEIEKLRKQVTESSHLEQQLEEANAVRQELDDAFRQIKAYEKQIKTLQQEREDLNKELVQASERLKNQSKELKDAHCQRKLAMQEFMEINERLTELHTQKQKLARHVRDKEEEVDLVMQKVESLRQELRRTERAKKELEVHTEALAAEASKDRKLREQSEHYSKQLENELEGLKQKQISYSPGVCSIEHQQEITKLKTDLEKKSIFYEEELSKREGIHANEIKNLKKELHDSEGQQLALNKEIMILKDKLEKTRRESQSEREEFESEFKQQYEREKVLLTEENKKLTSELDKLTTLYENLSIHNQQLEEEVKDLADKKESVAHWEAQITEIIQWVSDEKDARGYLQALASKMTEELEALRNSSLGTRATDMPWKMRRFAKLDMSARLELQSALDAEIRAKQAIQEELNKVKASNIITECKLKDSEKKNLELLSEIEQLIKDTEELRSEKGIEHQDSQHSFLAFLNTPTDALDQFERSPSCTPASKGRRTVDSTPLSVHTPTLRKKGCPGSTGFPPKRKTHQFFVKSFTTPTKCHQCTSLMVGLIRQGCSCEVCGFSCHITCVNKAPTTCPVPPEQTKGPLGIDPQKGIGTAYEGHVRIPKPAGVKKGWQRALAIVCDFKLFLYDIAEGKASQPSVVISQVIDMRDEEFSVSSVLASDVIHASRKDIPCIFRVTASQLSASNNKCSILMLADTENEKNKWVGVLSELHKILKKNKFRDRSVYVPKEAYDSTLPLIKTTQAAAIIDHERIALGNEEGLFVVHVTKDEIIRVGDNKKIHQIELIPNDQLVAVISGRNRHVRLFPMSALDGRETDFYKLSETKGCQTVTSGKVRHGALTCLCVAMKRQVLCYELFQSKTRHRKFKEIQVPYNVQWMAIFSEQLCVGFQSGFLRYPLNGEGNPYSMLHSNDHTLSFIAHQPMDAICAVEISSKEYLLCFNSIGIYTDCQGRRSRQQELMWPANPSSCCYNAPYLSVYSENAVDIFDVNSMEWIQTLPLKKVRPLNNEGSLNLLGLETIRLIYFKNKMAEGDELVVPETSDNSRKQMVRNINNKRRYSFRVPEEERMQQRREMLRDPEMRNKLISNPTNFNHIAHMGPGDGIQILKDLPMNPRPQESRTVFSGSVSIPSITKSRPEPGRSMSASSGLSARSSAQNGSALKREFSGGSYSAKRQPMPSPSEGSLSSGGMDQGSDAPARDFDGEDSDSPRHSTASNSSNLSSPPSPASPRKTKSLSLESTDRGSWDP

[4] = system: normotensive Dutch Belted rabbits; assay: Ocular hypotensive activity (IOP) in rabbits; settings: for IOP reduction: 8 h after dosing on Day 3; for time of peak IOP-lowering efficacy after dosing: Day 1; for maximal IOP reduction: once daily, Day 3, at 4 or 8 h after dosing
[5] = molecular target: T2, calcium/calmodulin-dependent protein kinase II Alpha (CAMK2A) (Homo sapiens, UniProt Q9UQM7); assay: Kinase-Glo luminescent protein kinase assay, CAMK2A; assay type: biochemical; settings: average of ≥3 replicate experiments; read-out: CAM2A Ki
T2 construct: purchased Invitrogen/Life Technologies
T2 sequence (Q9UQM7 whole entry): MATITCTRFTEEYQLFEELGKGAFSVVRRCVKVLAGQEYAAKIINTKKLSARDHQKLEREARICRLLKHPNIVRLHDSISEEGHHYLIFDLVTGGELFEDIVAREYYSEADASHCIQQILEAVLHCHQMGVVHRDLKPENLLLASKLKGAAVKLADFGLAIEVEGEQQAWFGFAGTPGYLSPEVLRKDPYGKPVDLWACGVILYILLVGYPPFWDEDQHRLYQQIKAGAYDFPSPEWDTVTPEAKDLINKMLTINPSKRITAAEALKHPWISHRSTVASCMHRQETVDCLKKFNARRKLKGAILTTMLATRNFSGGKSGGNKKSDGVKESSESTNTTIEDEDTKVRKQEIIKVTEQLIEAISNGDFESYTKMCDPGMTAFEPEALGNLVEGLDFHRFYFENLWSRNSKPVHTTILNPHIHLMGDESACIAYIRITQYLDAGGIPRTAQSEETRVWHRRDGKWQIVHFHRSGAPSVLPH

[6] = molecular target: T3, protein kinase C-theta (PKC-theta) (Homo sapiens, UniProt Q04759); assay: Kinase-Glo luminescent protein kinase assay, PKC-theta; assay type: biochemical; settings: average of ≥3 replicate experiments; read-out: PKCT Ki
T3 construct: purchased Invitrogen/Life Technologies
T3 sequence (Q04759 whole entry): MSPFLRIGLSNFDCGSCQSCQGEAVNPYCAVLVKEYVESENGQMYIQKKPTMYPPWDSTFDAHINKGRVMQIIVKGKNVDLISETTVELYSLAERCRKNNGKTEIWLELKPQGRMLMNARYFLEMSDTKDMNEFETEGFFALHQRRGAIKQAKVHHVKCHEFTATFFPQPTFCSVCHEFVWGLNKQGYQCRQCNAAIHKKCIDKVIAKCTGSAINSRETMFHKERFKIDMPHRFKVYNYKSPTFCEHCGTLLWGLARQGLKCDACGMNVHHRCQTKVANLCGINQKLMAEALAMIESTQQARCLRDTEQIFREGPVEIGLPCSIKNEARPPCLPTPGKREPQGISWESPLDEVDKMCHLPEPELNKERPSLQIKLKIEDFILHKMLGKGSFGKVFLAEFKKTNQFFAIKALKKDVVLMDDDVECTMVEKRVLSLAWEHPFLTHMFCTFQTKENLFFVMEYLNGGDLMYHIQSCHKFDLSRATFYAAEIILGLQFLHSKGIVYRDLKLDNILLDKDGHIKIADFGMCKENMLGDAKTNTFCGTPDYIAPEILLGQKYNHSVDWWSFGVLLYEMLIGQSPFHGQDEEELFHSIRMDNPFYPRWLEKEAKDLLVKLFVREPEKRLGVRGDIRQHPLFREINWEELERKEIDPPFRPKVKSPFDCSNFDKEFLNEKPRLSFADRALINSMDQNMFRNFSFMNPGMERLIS

[7] = Absorption and distribution of radioactivity after single topical ocular dose; assay type: in vivo, Dutch Belted rabbits; settings: male, Dutch Belted, rabbit, in vivo
Method: A single topical ocular dose of 0.02% ^14C-netarsudil mesylate (35 μL drop) was administered to both eyes of 3 male Dutch Belted rabbits in each of 7 groups. At 0.25, 0.5, 1, 4, 8, 24, and 48 h postdose, the following samples were harvested from each group: whole blood, derived plasma, AH, vitreous humor, cornea, conjunctiva, lens, iris/ciliary body, retina-choroid-plexus, liver, and kidneys. All samples were assayed for total radioactivity. A study of the same design was conducted for AR-12286, using a single topical ocular dose of 0.5% ^3H-AR-12286 (35 μL drop).

[8] = system: primary porcine TM (PTM) cells; assay: Disruption of actin stress fibers, high-content screening; assay type: cell-based; settings: for IC50: Sus scrofa, read-out: PTM IC50 (disruption of actin stress fibers)
[9] = molecular target: norepinephrine transporter (NET) (Homo sapiens, UniProt P23975); assay: NET inhibitory activity (data not shown)
Chain of norepinephrine transporter (NET) (P23975 whole entry, species assumed, the tested form may be a part): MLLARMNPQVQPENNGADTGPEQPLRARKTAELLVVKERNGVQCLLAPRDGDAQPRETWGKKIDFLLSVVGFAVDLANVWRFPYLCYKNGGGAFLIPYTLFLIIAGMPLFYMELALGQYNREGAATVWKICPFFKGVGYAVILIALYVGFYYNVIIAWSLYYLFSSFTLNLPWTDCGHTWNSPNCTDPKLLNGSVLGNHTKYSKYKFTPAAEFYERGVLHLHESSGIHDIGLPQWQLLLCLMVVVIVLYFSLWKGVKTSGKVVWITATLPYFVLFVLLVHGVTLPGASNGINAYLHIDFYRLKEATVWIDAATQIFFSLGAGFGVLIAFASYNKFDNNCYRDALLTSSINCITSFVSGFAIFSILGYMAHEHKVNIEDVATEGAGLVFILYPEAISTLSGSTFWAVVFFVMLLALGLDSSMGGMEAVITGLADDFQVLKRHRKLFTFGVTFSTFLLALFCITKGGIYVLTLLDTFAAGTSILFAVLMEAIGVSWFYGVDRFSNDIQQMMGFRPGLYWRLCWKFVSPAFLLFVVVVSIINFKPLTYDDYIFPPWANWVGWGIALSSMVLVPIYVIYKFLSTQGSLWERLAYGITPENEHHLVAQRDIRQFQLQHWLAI

[10] = system: mouse eyes; settings: eyes perfused ∼1 h, cited from earlier work
[11] = system: human donor eyes; settings: perfused for 3 h; cited from earlier work
[12] = molecular target: T4, ROCK1 (Homo sapiens, UniProt Q13464); assay: Kinase-Glo luminescent protein kinase assay, ROCK1; assay type: biochemical; settings: ROCK1 and ROCK2
T4 construct: purchased Invitrogen/Life Technologies
T4 sequence (Q13464 whole entry): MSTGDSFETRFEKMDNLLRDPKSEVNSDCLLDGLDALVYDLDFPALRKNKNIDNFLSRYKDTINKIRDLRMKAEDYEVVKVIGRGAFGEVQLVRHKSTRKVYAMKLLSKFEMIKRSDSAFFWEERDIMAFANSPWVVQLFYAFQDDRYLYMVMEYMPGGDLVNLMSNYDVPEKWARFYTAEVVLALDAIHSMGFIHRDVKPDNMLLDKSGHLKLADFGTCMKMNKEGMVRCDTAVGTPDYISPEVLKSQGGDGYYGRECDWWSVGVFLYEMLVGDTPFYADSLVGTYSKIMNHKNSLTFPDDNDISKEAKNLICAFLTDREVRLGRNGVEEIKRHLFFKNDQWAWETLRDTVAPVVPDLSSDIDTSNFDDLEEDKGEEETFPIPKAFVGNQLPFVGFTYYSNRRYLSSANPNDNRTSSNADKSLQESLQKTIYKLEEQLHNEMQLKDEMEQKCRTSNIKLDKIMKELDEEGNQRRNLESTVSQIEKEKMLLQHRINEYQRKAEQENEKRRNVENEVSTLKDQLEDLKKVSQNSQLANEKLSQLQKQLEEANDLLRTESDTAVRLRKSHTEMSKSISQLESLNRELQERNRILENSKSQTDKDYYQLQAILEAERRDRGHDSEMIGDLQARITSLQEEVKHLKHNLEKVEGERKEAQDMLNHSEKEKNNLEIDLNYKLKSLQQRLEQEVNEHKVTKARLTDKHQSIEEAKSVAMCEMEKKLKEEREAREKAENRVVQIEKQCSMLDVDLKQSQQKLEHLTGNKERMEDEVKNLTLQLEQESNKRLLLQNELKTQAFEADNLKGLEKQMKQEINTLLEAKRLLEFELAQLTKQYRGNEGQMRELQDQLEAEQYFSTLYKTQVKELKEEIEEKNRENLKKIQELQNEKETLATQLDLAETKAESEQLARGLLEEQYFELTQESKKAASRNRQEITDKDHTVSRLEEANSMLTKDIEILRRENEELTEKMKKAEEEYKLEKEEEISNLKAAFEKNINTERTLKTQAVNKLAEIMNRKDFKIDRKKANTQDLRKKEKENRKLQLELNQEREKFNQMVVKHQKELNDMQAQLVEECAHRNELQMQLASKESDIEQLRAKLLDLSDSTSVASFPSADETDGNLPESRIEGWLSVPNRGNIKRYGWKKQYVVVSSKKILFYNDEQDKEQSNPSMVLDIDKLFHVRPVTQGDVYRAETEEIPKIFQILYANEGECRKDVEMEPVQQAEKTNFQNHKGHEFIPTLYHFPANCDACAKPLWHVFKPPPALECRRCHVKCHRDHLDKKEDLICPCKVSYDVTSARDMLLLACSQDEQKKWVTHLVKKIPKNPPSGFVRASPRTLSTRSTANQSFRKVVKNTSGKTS

[13] = In vitro corneal metabolism, human; assay type: in vitro ADME; settings: corneal tissue punches, 37°C, pH 6.5, read-out: t1/2 of corneal metabolism
Method: (§1) Enucleated pig eyes (n = 3) were harvested at a local abattoir, stored on ice, and used within 4 h of slaughter. For eyes harvested from beagle dogs (n = 3; Calvert Laboratories, Pittston, PA), Dutch Belted rabbits (n = 3; Robinson Services, Mockesville, NC), and cynomolgus monkeys (n = 4; Covance, Madison, WI), intact globes were stored in K-Sol corneal preservation buffer[31] under cold conditions and used within 24 h of sacrifice. Human corneas (n = 3) were acquired from The Eye Bank for Sight Restoration (New York, NY). The weights of the corneal punches were approximately the same for the dog, pig, human, and rabbit, whereas monkey corneal punches were approximately half of the weight of the others. Corneal punches were stored in phosphate-buffered saline and used within 1 h of preparation.
(§2) Samples were incubated at 37°C and reactions were subsequently terminated at appropriate time intervals by transferring a 100 μL aliquot of solution to an equal volume of cold acetonitrile followed by thorough trituration. The samples were centrifuged at 10,000 g for 10 min and the supernatants analyzed by high performance liquid chromatography (HPLC) using a Waters Alliance 2695 HPLC (Milford, MA) equipped with a Symmetry C18 4.6 × 75 mm 3.5 μm column.

[14] = In vitro corneal metabolism, dog; assay type: in vitro ADME, beagle dogs; settings: beagle, corneal tissue punches, 37°C, pH 6.5, read-out: t1/2 of corneal metabolism
Method: as §1, §2

[15] = Ocular metabolism: levels in aqueous humor after topical ocular dosing; assay type: in vivo, New Zealand rabbits
Method: In groups 1 and 2, the test article was dosed only once, and 100 μL samples of AH were taken from each eye by paracentesis at 4 or 6 h postdose, respectively. In groups 3 and 4, the test article was dosed once daily for 3 or 4 days, respectively, and 100 μL samples of AH were taken 4 h after dosing.

[16] = system: patients; design: method as in PMID 25270273; settings: 0.02% once daily in the evening, Day 7 and 28 morning visits; cited from earlier work
[17] = system: live monkeys; design: method as in PMID 25535688; settings: 6 h after topical dosing, 0.04%; cited from earlier work
[18] = In vitro corneal metabolism, pig; assay type: in vitro ADME; settings: corneal tissue punches, 37°C, pH 6.5, read-out: t1/2 of corneal metabolism
Method: as §1, §2

[19] = system: Dutch Belted rabbits; assay: Ocular tolerability (modified Draize, hyperemia score) in rabbits; settings: 0.005%, 0.01%, 0.02% and 0.04% solutions
[20] = In vitro corneal metabolism, rabbit; assay type: in vitro ADME, Dutch Belted rabbits; settings: Dutch Belted, corneal tissue punches, 37°C, pH 6.5, read-out: t1/2 of corneal metabolism
Method: as §1, §2

[21] = system: Formosan Rock monkeys; assay: Ocular tolerability (modified Draize, hyperemia score) in monkeys; settings: 0.01%, 0.02% and 0.04% solutions, once daily for 3 days
[22] = In vitro corneal metabolism, monkey; assay type: in vitro ADME, cynomolgus monkeys; settings: corneal tissue punches, 37°C, pH 6.5, read-out: t1/2 of corneal metabolism
Method: as §1, §2

[23] = system: primary HTM cells; assay: TGF-β2-induced expression of fibrogenic markers, immunofluorescence; assay type: cell-based, human; settings: 500 nM netarsudil plus 8 ng/mL TGF-β2, 24 h
Method: Cells were grown on gelatin (2%)-coated coverslips until they were semi-confluent. […] The cells were then assessed for induction of the fibrogenic markers α-smooth muscle actin (α-SMA), Collagen I, and fibroblast-specific protein 1 (FSP1) using immunofluorescence staining as previously described.[29] Mouse monoclonal antibody against α-SMA was purchased from Sigma-Aldrich, rabbit anti-FSP1 antibody from EMD Millipore (Billerica, MA), and rabbit anti-Collagen I antibody from Abcam (Cambridge, MA).

## CN(C)C(C(=O)Nc1ccc2c(=O)[nH]ccc2c1)c1ccsc1 (stereo not shown) [AR-12286]
[1]; 0.5%, 4 h after dosing
  IOP reduction: 5.6 ± 0.3 mmHg
[1]; 0.5%, 24 h after dosing
  IOP reduction: 3.9 ± 0.3 mmHg
[2]; 6 h incubation
  IC50: 0.818 µM
[3]
  Ki: 0.028 µM
[4]; 0.5%
  IOP reduction: 2.9 ± 0.2 mmHg
[4]
  time of peak IOP-lowering efficacy after dosing: 0.5 h
[5]
  Ki: 5.85 µM
[6]
  Ki: 9.32 µM
[7]; topical or ocular
  T1/2,e values: 9 to 41 h
  Tmax in AH: 0.25 to 0.5 h
  terminal elimination half-life (T1/2,e) in AH: 9 to 11 h
[8]; 6 h incubation
  IC50: 0.924 µM

## NC[C@@H](C(=O)Nc1ccc2cnccc2c1)c1ccc(CO)cc1 [Netarsudil-M1]
[9]
  NET inhibitory activity: does not inhibit NET
[10]; C57 mice
  increase in outflow facility: 56%
[10]; CD1 mice
  increase in outflow facility: 91%
[2]; 6 h incubation
  IC50: 0.003 µM
[3]
  Ki: 0.007 µM
[11]
  increase in outflow facility relative to control eyes: 59.7%
[5]
  Ki: 13.7 µM
[6]
  Ki: 0.027 µM
[12]
  fold greater activity against Rho kinase than netarsudil: 5 fold
[8]; PTM and HTM cell-based assays
  fold greater activity than netarsudil for disruption of actin stress fibers and focal adhesions: ~5 fold
[8]; 6 h incubation
  IC50: 0.022 µM

## Cc1ccc(C(=O)OCc2ccc([C@@H](CN)C(=O)Nc3ccc4cnccc4c3)cc2)c(C)c1 [Netarsudil]
[9]
  NET inhibitory activity: possesses NET inhibitory activity
[13]
  half-life at 200 µM: 2.92 h
[1]; 0.01% solution
  maximal IOP reduction: 4.2 ± 0.2 mmHg
[1]; 0.02% solution
  maximal IOP reduction: 5.8 ± 0.3 mmHg
[1]; 0.04%
  time for which full IOP-lowering effect was maintained after dosing: 24 h
[1]; 0.04% solution
  maximal IOP reduction: 7.5 ± 1.1 mmHg
[1]; 0.04%, 4 h after dosing
  IOP reduction: 7.5 ± 0.7 mmHg
[1]; 0.04%, 24 h after dosing
  IOP reduction: 7.5 ± 1.1 mmHg
[1]; monkeys
  time IOP reductions were sustained after once daily dosing: at least 24 h
[2]; 6 h
  IC50: 0.016 µM
[14]
  half-life at 200 µM: 1.63 h
[15]; after topical netarsudil 0.02%, below the limit of detection in all but 1 of the 24 samples
  concentration in AH: < 0.1 ng/mL
[15]; male, New Zealand, rabbit, aqueous humor, topical, 0.02 %, read-out: concentration in AH, single sample above limit of detection
  concentration at 4 h: 1.82 ng/mL
[16]
  patients scored as having no hyperemia or trace hyperemia: 65% to 76
[17]
  increase in tonographic outflow facility: 53%
[4]; 0.005% solution
  maximal IOP reduction: 2.5 ± 0.2 mmHg
[4]; 0.01% solution
  maximal IOP reduction: 4.6 ± 0.2 mmHg
[4]; 0.02% solution
  maximal IOP reduction: 5.0 ± 0.6 mmHg
[4]; 0.04% solution
  maximal IOP reduction: 8.1 ± 0.7 mmHg
[4]; 0.04%
  IOP reduction: 8.1 ± 0.7 mmHg
[4]
  time of peak IOP-lowering efficacy after dosing: 8 h
[4]; rabbits
  time IOP reductions were sustained after once daily dosing: at least 24 h
[18]
  half-life at 200 µM: 2.6 h
[19]
  persistence of hyperemia after dosing: 4 to 8 h
[19]; once daily for 3 days
  hyperemia (scored 0 to 3, none to severe): trace (+0.5) to mild hyperemia (+1)
[20]
  half-life at 200 µM: 2.33 h
[5]
  Ki: 5.31 µM
[6]
  Ki: 0.092 µM
[21]
  adverse effect noted (hyperemia): trace to mild hyperemia was the only adverse effect noted
[22]
  half-life at 200 µM: 1.82 h
[7]
  AH half-life of related radioactivity, longer than that for AR-12286: ~60%
[7]; topical or ocular
  Tmax in AH: 8 h
  terminal elimination half-life (T1/2,e) in AH: 16 to 17 h
[8]; 6 h
  IC50: 0.079 µM
[23]
  induction of fibrogenic markers α-SMA, FSP1 and Collagen I by TGF-β2: abolished the induction of these markers by TGF-β2
